Experimental data from ChEMBL document CHEMBL1134921 (Bioorg Med Chem Lett, 2002).

Key:
Rattus norvegicus [1] = organism: Rattus norvegicus; test: Effective dose for Antinociceptive activity was determined in rat using drug discrimination assay: The symbol > signifies that no effect was produced at that dose; type: functional
Mus musculus [2] = organism: Mus musculus; test: Effective dose for Antinociceptive activity was determined in mice using Tail -Flick Assay: The symbol > signifies that no effect was produced at that dose; type: functional
[3] = target: Neuronal nicotinic acetylcholine receptor; test: Binding affinity against Nicotinic acetylcholine receptor using [3H](-)-nicotine radioligand; type: protein-complex assay
Mus musculus [4] = test: Effective dose for Antinociceptive activity expressed as Spontaneous activity was determined in mice antagonized by 1 mg/Kg of Mecamylamine: The symbol > signifies that no effect was produced at that dose; type: functional
Mus musculus [5] = test: Effective dose for Antinociceptive activity expressed as Spontaneous activity was determined in mice antagonized by 1 mg/Kg of Mecamylamine.; type: functional
Mus musculus [6] = organism: Mus musculus; test: Effective dose for Antinociceptive activity was determined in mice using Tail -Flick Assay; type: functional
Rattus norvegicus [7] = organism: Rattus norvegicus; test: Effective dose for Antinociceptive activity was determined in rat using drug discrimination assay; type: functional
Mus musculus [8] = test: Compound was tested to antagonize the antinociceptive actions of 2.5 mg/kg of (-)nicotine as measured in the tail-flick assay in mice; type: functional
[9] = Mus musculus, Tail, read-out: ED50
[10] = Rattus norvegicus, read-out: ED50

Structure (SMILES)	ED50 (Mus musculus [2])	Ki [3]	ED50 (Mus musculus [5]; Mus musculus, read-out: ED50)	ED50 (Mus musculus [6]; [9])	ED50 (Rattus norvegicus [7]; [10])	also measured
CCCc1ccc(C2CCCN2C)cn1 (racemic)	> 70 µmol/kg	25 nM	–	–	–	ED50 (Rattus norvegicus [1]): >20 µM/kg
CCCCCc1ccc(C2CCCN2C)cn1 (racemic)	> 50 µmol/kg	72 nM	–	–	–	ED50 (Mus musculus [4]): > 50 µmol/kg
Cc1ccc(C2CCCN2C)cn1 (racemic)	–	1.8 nM	1 µmol/kg	3.5 µmol/kg	0.4 µmol/kg	–
CN1CCC[C@H]1c1cccnc1 (racemic) [NICOTINE]	–	–	4.9 µmol/kg	9.9 µmol/kg	0.6 µmol/kg	–
CCc1ccc(C2CCCN2C)cn1 (single isomer, unassigned; (-))	–	5.6 nM	1.4 µmol/kg	2.1 µmol/kg	1.1 µmol/kg	–
CCCc1ccc(C2CCCN2C)cn1 (single isomer, unassigned; (-))	–	22 nM	–	–	–	ED50 (Rattus norvegicus [1]): >50 µM/kg; ED50 (Mus musculus [4]): > 35 µmol/kg; AD50 (Mus musculus [8]): 4.9 µM/kg
CCCCc1ccc(C2CCCN2C)cn1 (single isomer, unassigned; (-))	> 50 µmol/kg	21 nM	–	–	–	AD50 (Mus musculus [8]): 9.2 µM/kg
CN1CCC[C@H]1c1cccnc1 [NICOTINE]	–	–	–	–	–	ED50 (Mus musculus [5]): 3.1 µM/kg; ED50 (Mus musculus [6]): 7.4 µM/kg; ED50 (Rattus norvegicus [7]): 0.6 µM/kg
